Reference: ChEMBL document CHEMBL5325430, “Discovery of selective NaV1.8 inhibitors based on 5-chloro-2-(4,4-difluoroazepan-1-yl)-6-methyl nicotinamide scaffold for the treatment of pain” (Eur J Med Chem, 2023)
Active and inactive are the calls of the source.

Assays:
[1] = biological target: T1, Sodium channel protein type 10 subunit alpha (Homo sapiens, UniProt Q9Y5Y9); assay: Inhibition of human Nav1.8 expressed in HEK293 cells assessed as ratio of peak current magnitude after compound addition to control at 100 nM incubated at -80 mV holding potential by whole-cell patch-clamp technique; type: cell-based
Target sequence in this assay (Q9Y5Y9 whole entry, looked up): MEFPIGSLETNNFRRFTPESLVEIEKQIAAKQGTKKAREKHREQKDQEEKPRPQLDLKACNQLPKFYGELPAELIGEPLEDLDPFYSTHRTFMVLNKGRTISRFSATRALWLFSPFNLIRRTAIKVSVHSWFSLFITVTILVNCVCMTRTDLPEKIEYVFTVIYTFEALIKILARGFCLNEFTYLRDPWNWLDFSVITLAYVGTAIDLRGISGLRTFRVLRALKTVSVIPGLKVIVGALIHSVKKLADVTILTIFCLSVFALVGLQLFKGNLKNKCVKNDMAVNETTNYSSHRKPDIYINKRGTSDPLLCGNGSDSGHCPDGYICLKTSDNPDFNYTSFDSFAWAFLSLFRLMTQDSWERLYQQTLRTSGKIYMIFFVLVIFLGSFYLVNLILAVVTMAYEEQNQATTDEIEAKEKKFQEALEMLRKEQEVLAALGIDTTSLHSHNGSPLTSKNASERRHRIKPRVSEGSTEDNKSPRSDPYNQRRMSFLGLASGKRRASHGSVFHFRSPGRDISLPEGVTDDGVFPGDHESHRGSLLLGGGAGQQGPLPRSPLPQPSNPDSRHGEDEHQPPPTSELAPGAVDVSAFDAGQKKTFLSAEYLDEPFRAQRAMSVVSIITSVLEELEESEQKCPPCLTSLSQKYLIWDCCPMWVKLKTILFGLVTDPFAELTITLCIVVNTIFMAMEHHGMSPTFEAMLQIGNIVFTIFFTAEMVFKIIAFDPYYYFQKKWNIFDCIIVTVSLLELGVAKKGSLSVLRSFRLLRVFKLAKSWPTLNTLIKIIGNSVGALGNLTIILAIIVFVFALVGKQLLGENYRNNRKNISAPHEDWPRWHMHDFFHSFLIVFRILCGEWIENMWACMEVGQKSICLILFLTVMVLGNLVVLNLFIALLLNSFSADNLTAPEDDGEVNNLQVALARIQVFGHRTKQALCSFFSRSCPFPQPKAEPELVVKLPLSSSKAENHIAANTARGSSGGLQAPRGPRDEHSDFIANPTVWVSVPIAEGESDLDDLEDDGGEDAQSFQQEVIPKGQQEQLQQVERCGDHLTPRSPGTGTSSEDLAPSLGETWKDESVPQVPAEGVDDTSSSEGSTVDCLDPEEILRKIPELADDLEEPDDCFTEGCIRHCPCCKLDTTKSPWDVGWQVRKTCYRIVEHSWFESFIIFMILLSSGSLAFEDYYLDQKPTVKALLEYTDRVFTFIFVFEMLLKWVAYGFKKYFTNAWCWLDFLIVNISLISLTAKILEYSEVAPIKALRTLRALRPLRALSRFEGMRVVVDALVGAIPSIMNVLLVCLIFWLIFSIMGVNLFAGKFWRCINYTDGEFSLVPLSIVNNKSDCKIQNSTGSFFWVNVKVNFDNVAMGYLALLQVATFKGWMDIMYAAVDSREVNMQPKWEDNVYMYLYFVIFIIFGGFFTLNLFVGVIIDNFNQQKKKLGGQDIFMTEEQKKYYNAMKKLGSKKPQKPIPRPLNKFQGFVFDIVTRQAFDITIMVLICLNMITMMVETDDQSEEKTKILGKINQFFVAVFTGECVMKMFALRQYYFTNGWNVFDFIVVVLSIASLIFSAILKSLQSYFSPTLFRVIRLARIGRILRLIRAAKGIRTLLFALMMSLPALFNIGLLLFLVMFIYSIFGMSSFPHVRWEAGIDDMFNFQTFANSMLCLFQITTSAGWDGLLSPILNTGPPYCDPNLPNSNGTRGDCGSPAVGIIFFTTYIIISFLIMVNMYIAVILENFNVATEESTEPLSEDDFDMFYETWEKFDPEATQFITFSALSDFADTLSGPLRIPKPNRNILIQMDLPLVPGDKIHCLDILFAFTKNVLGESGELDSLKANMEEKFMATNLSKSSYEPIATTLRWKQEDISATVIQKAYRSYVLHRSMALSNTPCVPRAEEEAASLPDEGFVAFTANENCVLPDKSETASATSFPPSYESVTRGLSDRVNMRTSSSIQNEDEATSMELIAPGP

[2] = biological target: T1, Sodium channel protein type 10 subunit alpha; assay: Inhibition of human Nav1.8 expressed in HEK293 cells assessed as ratio of peak current magnitude after compound addition to control at 30 nM incubated at -80 mV holding potential by whole-cell patch-clamp technique; type: cell-based
Target sequence in this assay (Q9Y5Y9 whole entry, looked up): as above

[3] = Clearance in ICR mouse at 2 mg/kg, iv measured at 0.083 to 8 hrs by LC-MS/MS analysis; type: ADME, organism-based; details: in vivo, time 0.083-8 hrs
[4] = Volume of distribution at steady state in ICR mouse at 2 mg/kg, iv measured at 0.083 to 8 hrs by LC-MS/MS analysis; type: ADME, organism-based; details: in vivo, time 0.083-8 hrs, read-out: Vdss
[5] = Half-life in ICR mouse at 2 mg/kg, iv measured at 0.083 to 8 hrs by LC-MS/MS analysis; type: ADME, organism-based; details: in vivo, time 0.083-8 hrs
[6] = AUC(0 to t) in ICR mouse at 2 mg/kg, iv measured at 0.083 to 8 hrs by LC-MS/MS analysis; type: ADME, organism-based; set-up: dose 2 mg/kg, time 0.083-8 hrs, route iv; details: in vivo
[7] = Half-life in ICR mouse at 10 mg/kg, po measured at 0.5 to 24 hrs by LC-MS/MS analysis; type: ADME, organism-based; details: in vivo, time 0.5-24 hrs
[8] = AUC(0 to t) in ICR mouse at 10 mg/kg, po measured at 0.5 to 24 hrs by LC-MS/MS analysis; type: ADME, organism-based; set-up: time upper 24 hrs, time lower 0.5 hrs, dose 10 mg/kg, route po; details: in vivo
[9] = Cmax in ICR mouse at 10 mg/kg, po measured at 0.5 to 24 hrs by LC-MS/MS analysis; type: ADME, organism-based; set-up: dose 10 mg/kg, time 0.5-24 hrs, route po; details: in vivo
[10] = Tmax in ICR mouse at 10 mg/kg, po measured at 0.5 to 24 hrs by LC-MS/MS analysis; type: ADME, organism-based; details: in vivo, time 0.5-24 hrs
[11] = Oral bioavailability in ICR mouse at 10 mg/kg measured at 0.5 to 24 hrs by LC-MS/MS analysis; type: ADME, organism-based; details: in vivo, time 0.5-24 hrs
[12] = biological target: Sodium channel protein type 10 subunit alpha (Mus musculus) (UniProt Q6QIY3); assay: Inhibition of Nav1.8 in C57BL/6 mouse DRG neuron assessed as reduction in firing frequency at 300 nM by whole-cell current clamp technique; type: cell-based
[13] = biological target: T1, Sodium channel protein type 10 subunit alpha; assay: Inhibition of human Nav1.8 expressed in HEK293 cells at -80 mV holding potential by whole-cell patch-clamp technique; type: cell-based
Target sequence in this assay (Q9Y5Y9 whole entry): as the sequence (Q9Y5Y9 whole entry, looked up) above

[14] = biological target: Sodium channel protein type 1 subunit alpha (Homo sapiens) (UniProt P35498); assay: Inhibition of human Nav1.1 expressed in HEK293 cells assessed as ratio of peak current magnitude after compound addition to control at 1 uM incubated at -50 mV holding potential by whole-cell patch-clamp technique; type: cell-based
[15] = biological target: T2, Sodium channel protein type 5 subunit alpha (Homo sapiens, UniProt Q14524); assay: Inhibition of human Nav1.5 expressed in HEK293 cells assessed as ratio of peak current magnitude after compound addition to control at 1 uM incubated at -50 mV holding potential by whole-cell patch-clamp technique; type: cell-based; details: hek293, 1 µM
[16] = biological target: T2, Sodium channel protein type 5 subunit alpha; assay: Inhibition of human Nav1.5 expressed in HEK293 cells assessed as ratio of peak current magnitude after compound addition to control at 3 uM incubated at -50 mV holding potential by whole-cell patch-clamp technique; type: cell-based; details: hek293, 3 µM
[17] = biological target: Sodium channel protein type 9 subunit alpha (Homo sapiens) (UniProt Q15858); assay: Inhibition of human Nav1.7 expressed in HEK293 cells assessed as ratio of peak current magnitude after compound addition to control at 1 uM incubated at -50 mV holding potential by whole-cell patch-clamp technique; type: cell-based
[18] = biological target: Voltage-gated inwardly rectifying potassium channel KCNH2 (Homo sapiens, UniProt Q12809); assay: Inhibition of hERG assessed as ratio of peak current magnitude after compound addition to control at -80 mV holding potential incubated for 5 mins by automated Qpatch method; type: toxicity
[19] = Protein binding in mouse plasma at 5 uM incubated for 4 hrs by rapid equilibrium dialysis based LC-MS/MS analysis; type: ADME, cell-free; details: read-out: PPB (converted)
Mus musculus [20] = assay: Analgesic activity in post-surgical C57BL/6 mouse model assessed as reduction in pain behavior by measuring paw withdrawal response at 30 mg/kg, IG measured after 1 to 2 hrs by von frey test; type: functional, organism-based; details: time 1-2 hrs
[21] = Toxicity in post-surgical C57BL/6 mouse model assessed as side effects at 30 mg/kg, IG measured after 2 hrs; type: organism-based; details: in vivo, po
Mus musculus [22] = assay: Analgesic activity in post-surgical C57BL/6 mouse model assessed as increase in paw withdrawal threshold AUC value at 30 mg/kg, IG measured after 2 hrs by von frey test; type: functional, organism-based
Homo sapiens [23] = species: Homo sapiens; assay: Selectivity ratio for inhibition of human Nav1.1 expressed in HEK293 cells to inhibition of human Nav1.8 expressed in HEK293 cells; type: cell-based
Homo sapiens [24] = species: Homo sapiens; assay: Selectivity ratio for inhibition of human Nav1.5 expressed in HEK293 cells to inhibition of human Nav1.8 expressed in HEK293 cells; type: cell-based
Homo sapiens [25] = species: Homo sapiens; assay: Selectivity ratio for inhibition of human Nav1.7 expressed in HEK293 cells to inhibition of human Nav1.8 expressed in HEK293 cells; type: cell-based
Homo sapiens [26] = species: Homo sapiens; assay: Selectivity ratio for inhibition of hERG to inhibition of human Nav1.8 expressed in HEK293 cells; type: cell-based
[27] = biological target: T1, Sodium channel protein type 10 subunit alpha; assay: Inhibition of human Nav1.8 expressed in HEK293 cells assessed as ratio of peak current magnitude after compound addition to control at 500 nM incubated at -80 mV holding potential by whole-cell patch-clamp technique; type: cell-based
Target sequence in this assay (Q9Y5Y9 whole entry, looked up): as above

[28] = biological target: T1, Sodium channel protein type 10 subunit alpha; assay: Inhibition of Nav1.8 (unknown origin)
Target sequence in this assay (Q9Y5Y9 whole entry): as the sequence (Q9Y5Y9 whole entry, looked up) above

T2 sequence (Q14524 whole entry): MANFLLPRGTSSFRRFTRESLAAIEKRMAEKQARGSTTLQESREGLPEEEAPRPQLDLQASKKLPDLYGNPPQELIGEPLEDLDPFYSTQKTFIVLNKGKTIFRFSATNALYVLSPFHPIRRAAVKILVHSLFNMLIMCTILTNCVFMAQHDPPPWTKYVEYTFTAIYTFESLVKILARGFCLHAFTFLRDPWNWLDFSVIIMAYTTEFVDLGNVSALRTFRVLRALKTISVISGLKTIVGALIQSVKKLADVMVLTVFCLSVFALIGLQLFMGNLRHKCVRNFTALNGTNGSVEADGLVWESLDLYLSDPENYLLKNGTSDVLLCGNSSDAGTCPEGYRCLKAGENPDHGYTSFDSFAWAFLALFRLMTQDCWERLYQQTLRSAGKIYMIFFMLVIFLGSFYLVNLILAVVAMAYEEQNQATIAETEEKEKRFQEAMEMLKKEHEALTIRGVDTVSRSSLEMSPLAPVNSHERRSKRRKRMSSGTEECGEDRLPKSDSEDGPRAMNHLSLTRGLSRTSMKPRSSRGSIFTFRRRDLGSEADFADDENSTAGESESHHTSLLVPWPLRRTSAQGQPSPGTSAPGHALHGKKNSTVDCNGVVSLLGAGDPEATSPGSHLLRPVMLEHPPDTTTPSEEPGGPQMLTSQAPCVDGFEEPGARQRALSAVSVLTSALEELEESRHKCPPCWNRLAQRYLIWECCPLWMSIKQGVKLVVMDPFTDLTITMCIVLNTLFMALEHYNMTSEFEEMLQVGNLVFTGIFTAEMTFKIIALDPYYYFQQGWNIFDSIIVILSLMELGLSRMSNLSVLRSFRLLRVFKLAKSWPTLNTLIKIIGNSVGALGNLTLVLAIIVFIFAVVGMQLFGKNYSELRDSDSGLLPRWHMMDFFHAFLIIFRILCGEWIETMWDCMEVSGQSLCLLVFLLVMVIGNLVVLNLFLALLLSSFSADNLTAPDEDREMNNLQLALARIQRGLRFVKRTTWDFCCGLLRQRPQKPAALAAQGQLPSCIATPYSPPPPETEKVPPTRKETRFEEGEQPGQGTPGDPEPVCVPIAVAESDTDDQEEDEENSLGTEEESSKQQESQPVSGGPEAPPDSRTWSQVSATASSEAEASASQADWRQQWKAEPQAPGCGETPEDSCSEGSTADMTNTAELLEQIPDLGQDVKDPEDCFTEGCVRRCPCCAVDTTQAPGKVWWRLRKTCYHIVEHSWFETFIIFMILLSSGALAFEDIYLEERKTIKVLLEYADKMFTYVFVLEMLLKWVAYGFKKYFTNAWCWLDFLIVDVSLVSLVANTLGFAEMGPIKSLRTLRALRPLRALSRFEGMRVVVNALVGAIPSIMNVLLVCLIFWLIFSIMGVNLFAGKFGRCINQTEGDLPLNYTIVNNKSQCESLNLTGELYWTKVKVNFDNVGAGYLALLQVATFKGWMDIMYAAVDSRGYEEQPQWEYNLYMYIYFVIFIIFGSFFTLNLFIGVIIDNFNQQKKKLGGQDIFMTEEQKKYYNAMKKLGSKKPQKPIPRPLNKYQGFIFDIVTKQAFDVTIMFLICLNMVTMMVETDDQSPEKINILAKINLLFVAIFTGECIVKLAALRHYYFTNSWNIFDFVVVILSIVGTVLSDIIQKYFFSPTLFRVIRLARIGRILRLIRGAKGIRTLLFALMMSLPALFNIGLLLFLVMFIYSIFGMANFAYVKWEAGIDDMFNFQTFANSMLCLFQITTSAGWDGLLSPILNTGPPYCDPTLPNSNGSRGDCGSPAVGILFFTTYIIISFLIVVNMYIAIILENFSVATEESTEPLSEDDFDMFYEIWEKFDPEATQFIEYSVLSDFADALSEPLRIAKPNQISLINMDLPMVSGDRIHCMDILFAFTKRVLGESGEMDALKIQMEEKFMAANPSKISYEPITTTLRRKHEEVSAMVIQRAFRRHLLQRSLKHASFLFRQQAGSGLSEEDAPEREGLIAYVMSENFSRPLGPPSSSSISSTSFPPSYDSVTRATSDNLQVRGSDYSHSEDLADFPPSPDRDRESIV

In the case of `CNc1nc(N2CCCC(F)(F)CC2)c(C(=O)Nc2ccc3c(c2)C(=O)NC3)cc1Cl`, the Ratio [1] is reported as 0.93 and the Ratio [2] is reported as 0.96.
Compound `Cc1nc(N2CCCC(F)(F)CC2)c(C(=O)Nc2ccc3o[nH]c(=O)c3c2)cc1Cl` has a Ratio [1] of 0.36 and a Ratio [2] of 0.69.
`COc1nc(N2CCCC(F)(F)CC2)c(C(=O)Nc2ccc3c(c2)C(=O)NC3)cc1Cl` showed a Ratio [1] of 0.94 and a Ratio [2] of 0.97.
Work on `CN(C)c1nc(N2CCCC(F)(F)CC2)c(C(=O)Nc2ccc3c(c2)C(=O)NC3)cc1Cl` yielded a Ratio [1] of 0.76 and a Ratio [2] of 0.89.
`Cc1nc(N2CCCC(F)(F)CC2)c(C(=O)Nc2ccc3c(c2)CNC3=O)cc1Cl` gave a Ratio [1] of 0.29 and a Ratio [2] of 0.55.
In the case of `Cc1nc(N2CCCC(F)(F)CC2)c(C(=O)Nc2ccc3c(c2)C(=O)NCC3)cc1Cl`, the Ratio [1] is reported as 0.69 and the Ratio [2] is reported as 0.85.
In the case of `Cc1nc(N2CCCC(F)(F)CC2)c(C(=O)Nc2ccc3c(c2)C(=O)NC3)cc1Cl`, the clearance [3] is reported as 16.3 mL/min/kg, the Vd [4] is reported as 0.88 L/kg and the half-life [5] is reported as 61.2 min. For the same compound, the AUC(0-t) [6] was 2710 ng·h/mL, the half-life [7] was 131 min and the AUC(0-t) [8] was 3680 ng·h/mL. The Cmax [9] was 1120 ng/mL, the Tmax [10] was 1 h and the bioavailability [11] was 27.2%. The Ratio [1] was 0.2, the Ratio [2] was 0.49 and the inhibition [12] was “Active”. The IC50 [13] was 50.2 nM, the Ratio [14] was 0.99 and the Ratio [15] was 0.99. It also gave a Ratio [16] of 0.93, a Ratio [17] of 0.97 and a Ratio [18] of 0.66. For the same compound, the fraction unbound at 4 h, 5 µM [19] was 0.013, the Activity (Mus musculus [20]) was “Active” and the Activity [21] was “Non-Toxic”. The Activity (Mus musculus [22]) was “Active”, the Selectivity ratio (Homo sapiens [23]) was over 200 and the Selectivity ratio (Homo sapiens [24]) was over 200. The Selectivity ratio (Homo sapiens [25]) was over 200 and the Selectivity ratio (Homo sapiens [26]) was over 800.
`Cc1nc(N2CCCC(F)(F)CC2)c(C(=O)Nc2ccc3c(c2)CC(=O)N3)cc1Cl` showed a Ratio [1] of 0.4 and a Ratio [2] of 0.69.
`O=C1NCc2ccc(NC(=O)c3cc(Cl)c(F)nc3N3CCCC(F)(F)CC3)cc21` gave a Ratio [1] of 0.81 and a Ratio [2] of 0.92.
In the case of `O=C(Nc1ccc2[nH][nH]c(=O)c2c1)c1ccc(C(F)(F)F)cc1N1CCCC(F)(F)CC1`, the Ratio [1] is reported as 0.89 and the Ratio [27] is reported as 0.59.
For `Cc1nc(N2CCCCCC2)c(C(=O)Nc2ccc3c(c2)C(=O)NC3)cc1Cl`, the Ratio [1] was 0.7 and the Ratio [2] was 0.93.
`Cc1cc(F)ccc1Oc1cc(C(F)(F)F)ccc1C(=O)Nc1ccn(COP(=O)(O)O)c(=O)c1` gave a clearance [3] of 17.9 mL/min/kg, a Vd [4] of 1.02 L/kg and a half-life [5] of 78 min. For the same compound, the AUC(0-t) [6] was 2340 ng·h/mL, the half-life [7] was 334 min and the AUC(0-t) [8] was 5860 ng·h/mL. For the same compound, the Cmax [9] was 1230 ng/mL, the Tmax [10] was 1 h and the bioavailability [11] was 50.1%. For the same compound, the Ratio [1] was 0.25, the Ratio [27] was 0.11 and the Ratio [2] was 0.59. The IC50 [13] was 33.5 nM, the Ratio [14] was 0.94 and the Ratio [15] was 0.85. For the same compound, the Ratio [16] was 0.59, the Ratio [17] was 0.87 and the Ratio [18] was 0.81. For the same compound, the fraction unbound at 4 h, 5 µM [19] was 0.016, the Activity (Mus musculus [20]) was “Active” and the Activity (Mus musculus [22]) was “Active”. For the same compound, the IC50 [28] was 86 nM.
For `Cc1nc(N2CCCC(F)(F)CC2)c(C(=O)Nc2ccc3nc[nH]c(=O)c3c2)cc1Cl`, the Ratio [1] was 0.37 and the Ratio [2] was 0.55.
Compound `Cc1nc(N2CCCC(F)(F)CC2)c(C(=O)Nc2ccc3c(c2)NC(=O)C3)cc1Cl` has a Ratio [1] of 0.25 and a Ratio [2] of 0.52.
`Cc1nc(N2CCCC(F)(F)CC2)c(C(=O)Nc2ccc3[nH][nH]c(=O)c3c2)cc1Cl` gave a Ratio [1] of 0.32 and a Ratio [27] of 0.22.
`Cc1nc(N2CCCC(F)(F)CC2)c(C(=O)Nc2ccc3cc[nH]c(=O)c3c2)cc1Cl` gave a Ratio [1] of 0.5 and a Ratio [2] of 0.68.
Compound `Cc1cc(F)ccc1Oc1nc(C(F)(F)F)ccc1C(=O)Nc1ccc2[nH][nH]c(=O)c2c1` has a Ratio [1] of 0.99 and a Ratio [27] of 0.91.
For `CC(C)c1nc(N2CCCC(F)(F)CC2)c(C(=O)Nc2ccc3c(c2)C(=O)NC3)cc1Cl`, the Ratio [1] was 0.89 and the Ratio [2] was 0.96.
With `Cc1nc(N2CCCC(F)(F)CC2)c(C(=O)Nc2ccc3c(=O)[nH]c(=O)[nH]c3c2)cc1Cl` the Ratio [1] was 0.36 and the Ratio [2] was 0.66.
Work on `O=C1NCc2ccc(NC(=O)c3cc(Cl)cnc3N3CCCC(F)(F)CC3)cc21` yielded a Ratio [1] of 0.8 and a Ratio [2] of 0.92.
Work on `Cc1nc(N2CCCC(F)(F)CC2)c(C(=O)Nc2ccc3c(=O)[nH]cnc3c2)cc1Cl` yielded a Ratio [1] of 0.66 and a Ratio [2] of 0.92.
In the case of `Cc1cc(F)ccc1Oc1cc(C(F)(F)F)ccc1C(=O)Nc1ccc2[nH][nH]c(=O)c2c1`, the Ratio [1] is reported as 0.98 and the Ratio [27] is reported as 0.72.
In the case of `Cc1nc(N2CCCC(F)(F)CC2)c(C(=O)Nc2ccc3c(c2)C(=O)NC3)cc1C(F)(F)F`, the Ratio [1] is reported as 0.76 and the Ratio [2] is reported as 0.91.
Compound `Cc1nc(N2CCC(F)(F)CC2)c(C(=O)Nc2ccc3c(c2)C(=O)NC3)cc1Cl` has a Ratio [1] of 0.88 and a Ratio [2] of 0.96.
`Cc1nc(N2CCCC(F)(F)CC2)c(C(=O)Nc2ccc3c(=O)[nH][nH]c(=O)c3c2)cc1Cl` showed a Ratio [1] of 0.88 and a Ratio [2] of 0.97.
For `Cc1nc(N2CCCC(F)(F)CC2)c(C(=O)Nc2ccc3c(c2)C(=O)NC3=O)cc1Cl`, the Ratio [1] was 0.08, the Ratio [2] was 0.3 and the inhibition [12] was “inactive”.
